Data reported in ChEMBL document CHEMBL1201862, “PubChem BioAssay data set” (2004).
Calls of active or inactive are those of the source.

Columns and labels:
Leucine aminopeptidase = target: T1, Leucine aminopeptidase (Plasmodium falciparum 3D7, UniProt Q8IL11); assay: P. falciparum M17LAP inhibitors, primary screen, biochemical, fluorogenic H-Leu-NHMec substrate, 1536-well (AID 1619); type: functional
T1 sequence (Q8IL11 whole entry): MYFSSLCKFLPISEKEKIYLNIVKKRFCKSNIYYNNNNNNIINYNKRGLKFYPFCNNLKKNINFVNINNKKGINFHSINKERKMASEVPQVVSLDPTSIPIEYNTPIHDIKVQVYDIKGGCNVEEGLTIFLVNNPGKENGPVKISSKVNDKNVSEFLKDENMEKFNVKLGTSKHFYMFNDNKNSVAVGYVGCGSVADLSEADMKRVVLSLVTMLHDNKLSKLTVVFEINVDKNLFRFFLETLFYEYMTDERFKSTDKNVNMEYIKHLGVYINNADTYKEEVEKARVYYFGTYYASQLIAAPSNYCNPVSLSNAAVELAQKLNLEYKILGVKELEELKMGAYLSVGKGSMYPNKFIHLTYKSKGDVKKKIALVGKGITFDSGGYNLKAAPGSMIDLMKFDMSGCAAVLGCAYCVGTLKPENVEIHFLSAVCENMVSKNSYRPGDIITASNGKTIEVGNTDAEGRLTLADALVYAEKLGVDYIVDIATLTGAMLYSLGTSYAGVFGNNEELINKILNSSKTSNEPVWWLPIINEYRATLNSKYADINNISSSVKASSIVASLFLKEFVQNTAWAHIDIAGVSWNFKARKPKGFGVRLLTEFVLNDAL

[1] = target: T2, RNA-binding protein pos-1 (Caenorhabditis elegans, UniProt G5EF15); assay: disruptors of C. elegans POS-1 RNA interaction – biochemical, fluorescence polarization, dose response (AID 1964);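 also: purified POS-1 fused to maltose binding protein made in E. coli; potency of compounds blocking POS-1 binding to fluorescent RNA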
T2 sequence (G5EF15 whole entry): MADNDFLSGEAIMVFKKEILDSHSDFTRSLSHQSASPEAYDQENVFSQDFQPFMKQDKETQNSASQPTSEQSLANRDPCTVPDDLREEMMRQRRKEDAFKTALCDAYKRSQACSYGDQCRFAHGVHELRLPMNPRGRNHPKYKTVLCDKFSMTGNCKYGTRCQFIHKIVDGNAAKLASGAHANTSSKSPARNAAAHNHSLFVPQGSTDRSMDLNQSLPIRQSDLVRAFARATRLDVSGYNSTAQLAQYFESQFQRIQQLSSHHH

[2] = target: T3, Zinc finger protein mex-5 (Caenorhabditis elegans, UniProt Q9XUB2); assay: potency of MEX-5 RNA-binding blockers – biochemical, C. elegans, fluorescence polarization, dose response (AID 1960)
T3 sequence (Q9XUB2 whole entry): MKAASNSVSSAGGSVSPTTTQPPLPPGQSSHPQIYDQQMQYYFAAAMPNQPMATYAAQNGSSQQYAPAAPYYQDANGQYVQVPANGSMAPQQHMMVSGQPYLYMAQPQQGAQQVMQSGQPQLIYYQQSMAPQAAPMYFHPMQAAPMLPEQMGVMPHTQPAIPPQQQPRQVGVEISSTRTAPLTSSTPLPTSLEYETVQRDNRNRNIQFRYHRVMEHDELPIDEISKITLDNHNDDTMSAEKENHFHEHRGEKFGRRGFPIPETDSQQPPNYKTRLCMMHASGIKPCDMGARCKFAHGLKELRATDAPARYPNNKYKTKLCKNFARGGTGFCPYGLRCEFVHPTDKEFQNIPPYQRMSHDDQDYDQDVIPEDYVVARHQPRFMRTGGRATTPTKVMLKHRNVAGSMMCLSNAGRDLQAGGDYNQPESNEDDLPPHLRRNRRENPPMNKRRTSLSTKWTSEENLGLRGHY

[3] = antibacterial activity against E. coli NEB5alpha – luminescence, counter-screen for MEX-5/POS-1 RNA-binding inhibitor project, dose response (AID 1959); type: functional
Nonstructural protein 1 = Nonstructural protein 1 (Influenza A virus, UniProt Q194T2); type: functional, Influenza A virus (A/California/07/2009(H1N1))
Nonstructural protein 1, sequence (Q194T2 whole entry): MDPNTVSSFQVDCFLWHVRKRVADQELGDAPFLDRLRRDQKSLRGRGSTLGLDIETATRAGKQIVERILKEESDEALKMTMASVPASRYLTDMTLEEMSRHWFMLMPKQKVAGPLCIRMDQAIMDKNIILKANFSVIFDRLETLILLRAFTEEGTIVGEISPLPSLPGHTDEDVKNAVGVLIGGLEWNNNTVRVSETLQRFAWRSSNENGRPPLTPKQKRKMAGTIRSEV

[4] = viability loss in HeLa cells – cytotoxicity control for MgcRacGAP inhibitor project, dose response (AID 624300); type: functional
[5] = target: T4, Rac GTPase-activating protein 1 (Homo sapiens, UniProt Q9H0H5); assay: blockers of MgcRacGAP-driven Rac1 GTP hydrolysis – biochemical, ADP Hunter fluorescence, primary and confirmatory, confirmation (AID 624330); type: functional
T4 sequence (Q9H0H5 whole entry): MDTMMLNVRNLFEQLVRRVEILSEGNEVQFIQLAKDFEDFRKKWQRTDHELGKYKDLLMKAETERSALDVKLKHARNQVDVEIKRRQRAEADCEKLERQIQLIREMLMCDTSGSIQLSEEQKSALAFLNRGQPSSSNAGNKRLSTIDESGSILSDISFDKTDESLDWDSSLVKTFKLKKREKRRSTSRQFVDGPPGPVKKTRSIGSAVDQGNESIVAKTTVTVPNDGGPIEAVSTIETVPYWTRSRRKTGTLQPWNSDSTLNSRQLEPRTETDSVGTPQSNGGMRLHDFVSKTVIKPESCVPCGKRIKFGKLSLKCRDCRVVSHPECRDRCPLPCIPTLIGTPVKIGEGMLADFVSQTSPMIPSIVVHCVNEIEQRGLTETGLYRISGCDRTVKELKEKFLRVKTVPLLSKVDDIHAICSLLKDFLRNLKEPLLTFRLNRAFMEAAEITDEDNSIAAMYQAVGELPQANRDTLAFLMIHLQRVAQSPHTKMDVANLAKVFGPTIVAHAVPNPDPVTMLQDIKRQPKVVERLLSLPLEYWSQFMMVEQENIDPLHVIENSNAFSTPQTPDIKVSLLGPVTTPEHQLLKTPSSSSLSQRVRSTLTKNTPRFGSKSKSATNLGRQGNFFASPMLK

[6] = HGIII-sPLA2 enzyme inhibition potency – biochemical, QFRET, IC50, dose response (AID 743457);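 also: green fluorescence rise as the enzyme cleaves BODIPY PC-A2 in liposomes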
[7] = system: Streptococcus sp. 'group A'; assay: Streptococcus pyogenes SK(-)GAS viability under kanamycin – luminescence, BacTiterGlo, confirmation, counter-screen for streptokinase expression inhibitor project, dose response (AID 1900); type: functional, organism-based
[8] = target: Voltage-gated inwardly rectifying potassium channel KCNH2 (Homo sapiens, UniProt Q12809); assay: concentration-dependent hERG rescue from blockers – cell-based, thallium flux, dose response (AID 2121); type: ADME
Voltage-gated inwardly rectifying potassium channel KCNH2, sequence (Q12809 whole entry): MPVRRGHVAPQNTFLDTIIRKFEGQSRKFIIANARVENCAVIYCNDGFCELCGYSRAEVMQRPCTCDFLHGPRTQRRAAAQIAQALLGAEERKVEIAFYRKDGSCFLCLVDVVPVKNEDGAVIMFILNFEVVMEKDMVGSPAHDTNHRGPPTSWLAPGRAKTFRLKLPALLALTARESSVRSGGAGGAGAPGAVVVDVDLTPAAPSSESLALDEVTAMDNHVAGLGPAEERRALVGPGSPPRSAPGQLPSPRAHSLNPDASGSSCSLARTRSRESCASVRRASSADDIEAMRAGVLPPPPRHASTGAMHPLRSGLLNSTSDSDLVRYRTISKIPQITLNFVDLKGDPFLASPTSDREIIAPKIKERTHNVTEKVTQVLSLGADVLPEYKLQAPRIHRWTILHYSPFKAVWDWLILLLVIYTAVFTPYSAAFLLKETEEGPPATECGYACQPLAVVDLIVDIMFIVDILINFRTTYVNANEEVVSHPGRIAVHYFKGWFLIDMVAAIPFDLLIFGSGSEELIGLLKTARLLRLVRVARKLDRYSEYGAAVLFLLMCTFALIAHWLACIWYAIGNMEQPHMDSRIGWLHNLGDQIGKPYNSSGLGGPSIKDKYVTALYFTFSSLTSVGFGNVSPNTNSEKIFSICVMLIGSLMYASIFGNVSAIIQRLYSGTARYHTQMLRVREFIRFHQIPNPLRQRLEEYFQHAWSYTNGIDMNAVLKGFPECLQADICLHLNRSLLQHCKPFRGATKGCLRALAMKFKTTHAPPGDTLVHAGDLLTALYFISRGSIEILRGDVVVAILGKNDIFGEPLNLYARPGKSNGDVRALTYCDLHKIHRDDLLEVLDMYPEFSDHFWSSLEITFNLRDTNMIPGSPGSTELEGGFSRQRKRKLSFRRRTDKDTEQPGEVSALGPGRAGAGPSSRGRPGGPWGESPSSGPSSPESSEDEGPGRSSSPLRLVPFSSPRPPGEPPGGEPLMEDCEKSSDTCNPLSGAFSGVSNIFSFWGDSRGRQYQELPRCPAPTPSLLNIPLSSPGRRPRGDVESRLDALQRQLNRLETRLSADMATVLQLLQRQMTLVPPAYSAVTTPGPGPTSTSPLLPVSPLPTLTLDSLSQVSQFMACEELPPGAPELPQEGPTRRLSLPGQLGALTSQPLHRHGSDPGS

Streptococcus = assay: GAS UMAA2166 growth inhibition – luminescence, BacTiterGlo, counter-screen for streptokinase expression inhibitor project, dose response (AID 1915); type: functional, organism-based;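 also: potency for reduction of bacterial viability or growth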
Bcl-2-related protein A1 [9] = target: T5, Bcl-2-related protein A1 (Mus musculus, UniProt Q07440); assay: small-molecule antagonists of Bfl-1/BH3 interaction – biochemical, TR-FRET, mouse Bfl-1, confirmation (AID 621);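 also: TR-FRET binding of GST-Bfl-1 to FITC-labelled Bid peptide via terbium antibody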
T5 sequence (Q07440 whole entry): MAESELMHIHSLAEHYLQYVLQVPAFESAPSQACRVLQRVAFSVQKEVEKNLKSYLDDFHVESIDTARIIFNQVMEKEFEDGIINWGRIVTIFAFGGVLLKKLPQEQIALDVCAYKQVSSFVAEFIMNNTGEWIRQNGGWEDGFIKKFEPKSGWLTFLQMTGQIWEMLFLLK

Bcl-2-related protein A1 [10] = target: T5, Bcl-2-related protein A1; assay: Bfl-1 binding inhibitors, SAR follow-up, biochemical, fluorescence polarization (AID 1070)
Protein skinhead-1 = target: T6, Protein skinhead-1 (Caenorhabditis elegans, UniProt P34707); type: functional
T6 sequence (P34707 whole entry): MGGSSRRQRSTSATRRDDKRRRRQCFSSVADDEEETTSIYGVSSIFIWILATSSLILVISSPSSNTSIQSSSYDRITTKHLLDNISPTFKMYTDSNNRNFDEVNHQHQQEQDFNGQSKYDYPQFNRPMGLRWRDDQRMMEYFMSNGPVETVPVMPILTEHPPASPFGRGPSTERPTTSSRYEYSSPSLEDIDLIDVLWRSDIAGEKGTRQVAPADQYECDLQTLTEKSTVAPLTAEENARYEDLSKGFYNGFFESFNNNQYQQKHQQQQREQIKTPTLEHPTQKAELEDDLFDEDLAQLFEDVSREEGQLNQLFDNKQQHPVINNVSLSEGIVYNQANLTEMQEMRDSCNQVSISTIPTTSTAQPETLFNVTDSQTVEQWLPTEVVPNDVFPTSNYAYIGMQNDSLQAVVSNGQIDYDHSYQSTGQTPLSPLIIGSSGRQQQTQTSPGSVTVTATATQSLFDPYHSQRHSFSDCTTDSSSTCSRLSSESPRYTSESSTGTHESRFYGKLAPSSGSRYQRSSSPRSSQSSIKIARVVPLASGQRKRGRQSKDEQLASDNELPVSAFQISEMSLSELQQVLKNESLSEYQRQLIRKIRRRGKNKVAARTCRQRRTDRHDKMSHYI

[11] = Luminescent dose response cell-based high throughput screening assay for inhibitors of the Janus kinase 2 mutant JAK2V617F. [Related pubchem assays: 1446 (Primary screen.), 1521 (Confirmation assay.), 1486 (Counter screen.)]; type: functional
[12] = THP-1 cell cytotoxicity, dose response, cytotoxicity control for non-replicating M. tuberculosis project (AID 489025); type: functional
[13] = HepG2 cell cytotoxicity, dose response, cytotoxicity control for non-replicating M. tuberculosis project (AID 489018); type: functional; settings: Mycobacterium tuberculosis
[14] = Vero E6 cell cytotoxicity, dose response, cytotoxicity control for non-replicating M. tuberculosis project, secondary assay (AID 492998); type: functional, VeroE6; settings: Vero C1008
cells = type: functional
Paired box protein Pax-8 = Paired box protein Pax-8 (Homo sapiens, UniProt Q06710); assay: PAX8 transcriptional activity inhibition in RMG-I – RMG-I cells, luciferase, cherry-pick, dose response (AID 687027); type: functional, cell-based;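 also: luciferase reporter driven by Pax8 target thyroperoxidase promoter measured by SteadyGlo luminescence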
Paired box protein Pax-8, sequence (Q06710 whole entry): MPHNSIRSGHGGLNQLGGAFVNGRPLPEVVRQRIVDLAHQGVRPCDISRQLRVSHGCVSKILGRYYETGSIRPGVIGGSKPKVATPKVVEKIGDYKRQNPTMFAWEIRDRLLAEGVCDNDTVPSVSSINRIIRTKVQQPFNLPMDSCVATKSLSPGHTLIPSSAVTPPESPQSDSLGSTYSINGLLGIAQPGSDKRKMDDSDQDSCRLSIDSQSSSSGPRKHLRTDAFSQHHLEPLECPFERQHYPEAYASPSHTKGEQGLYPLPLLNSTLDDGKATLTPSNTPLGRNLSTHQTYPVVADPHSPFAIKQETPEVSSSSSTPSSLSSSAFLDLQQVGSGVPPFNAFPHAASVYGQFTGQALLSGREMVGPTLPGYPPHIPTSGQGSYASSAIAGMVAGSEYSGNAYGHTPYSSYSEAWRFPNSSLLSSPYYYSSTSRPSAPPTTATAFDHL

**Q.** What does the source list for `CC[n+]1c(/C=C/c2ccc(N(C)C)cc2)ccc2ccccc21`?
**A.** IC50 (Leucine aminopeptidase): 110 µM (active); EC50 [1]: > 300 µM (not active); EC50 [2]: > 300 µM (not active); EC50 [3]: 37.8 µM (active); IC50 (Nonstructural protein 1): 18.9 µM (active); CC50 [4]: 39.7 µM (active); IC50 [5]: 46.6 µM (active); IC50 [6]: 34 µM (inactive)

**Q.** Which results are given for `CCOc1ccc2nc(N3C(=O)/C(=C/c4ccc(Cl)cc4)NC3=S)sc2c1`?
**A.** EC50 [7]: 1.8 µM (active); EC50 [8]: 1.24 µM (active); EC50 (Streptococcus): 0.855 µM (active)

**Q.** Which IC50 (Bcl-2-related protein A1 [9]) does the source give for `Fc1ccc(-n2nnc(-c3cccnc3)n2)cc1` here?
**A.** Its IC50 is > 100 µM (not active).

**Q.** And the IC50 (Bcl-2-related protein A1 [10])?
**A.** The IC50 was > 100 µM (not active).

**Q.** What about the IC50 (Protein skinhead-1) of the same compound?
**A.** The IC50 was 17.4 µM (active).

**Q.** With `CCOc1ccc(C(=O)C(CN2CCOCC2)c2ccccc2)cc1` (stereo not given) as the compound, how does the IC50 [11] read?
**A.** Its IC50 is 0.73 µM (active).

**Q.** What about the CC50 [12] of the same compound?
**A.** The CC50 was 5.48 µM (active).

**Q.** What about the CC50 [13] of the same compound?
**A.** Its CC50 is 16.1 µM (active).

**Q.** What about the CC50 [14] of the same compound?
**A.** The CC50 was 8.04 µM (active).

**Q.** What about the IC50 (cells) of the same compound?
**A.** The IC50 was 10.3 µM (active).

**Q.** And the AC50 (Paired box protein Pax-8)?
**A.** Its AC50 is 1.96 µM (active).
